# Data published in PMC7915588, “Polyphyllin D Shows Anticancer Effect through a Selective Inhibition of Src Homology Region 2-Containing Protein Tyrosine Phosphatase-2 (SHP2)” (Molecules, 2021).
# Key:
# Assay in all cases: biochemical
# Parameters in all cases: Fluorogenic phosphatase assay, DiFMUP hydrolysis by recombinant PTPs, initial velocity, Ex/Em 355/460 nm
# Conditions in all cases: read-out: Inhibition by 20 µM polyphyllin D (%)
# SHP1 = biological target: T1, SHP1 (Homo sapiens, UniProt P29350)
# T1 construct: gene PTPN6
# T1 sequence (P29350 whole entry): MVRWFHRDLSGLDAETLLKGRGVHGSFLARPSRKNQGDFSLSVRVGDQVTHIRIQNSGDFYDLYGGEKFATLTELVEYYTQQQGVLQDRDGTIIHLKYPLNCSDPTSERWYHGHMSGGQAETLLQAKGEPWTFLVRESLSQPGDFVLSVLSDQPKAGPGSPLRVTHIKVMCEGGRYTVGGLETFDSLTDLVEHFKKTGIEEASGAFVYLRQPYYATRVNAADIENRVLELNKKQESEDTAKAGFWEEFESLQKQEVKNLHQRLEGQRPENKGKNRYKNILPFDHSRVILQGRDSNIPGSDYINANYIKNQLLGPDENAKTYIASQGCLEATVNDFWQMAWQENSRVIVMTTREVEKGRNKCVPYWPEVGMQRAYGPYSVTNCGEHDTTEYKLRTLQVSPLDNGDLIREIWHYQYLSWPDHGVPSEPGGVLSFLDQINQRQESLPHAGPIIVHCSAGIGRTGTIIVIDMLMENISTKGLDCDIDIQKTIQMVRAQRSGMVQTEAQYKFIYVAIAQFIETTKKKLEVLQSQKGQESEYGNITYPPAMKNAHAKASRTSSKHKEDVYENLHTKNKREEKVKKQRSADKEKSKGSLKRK
# Description: (§1) Enzymatic reactions were initiated by the addition of SHP2 (final concentration of 10 nM) to a solution of each of the 658 phytochemical compounds (final concentration of 20 µM) in reaction buffer (20 mM bis-tris pH 6.0, 150 mM NaCl, 2.5 mM dithiothreitol, and 0.01% Triton X-100) containing DiFMUP (final concentration of 140 µM). Changes in the fluorescence intensities were measured continuously for 10 min at Ex/Em = 355/460 nm on a VictorTM X4 multilabel plate reader. Enzyme inhibition was estimated by comparing the reaction velocity in the presence of each compound with that in the absence of any compound. Inhibition of the other PTPs was measured in the same way. Next, we established a screening strategy using a DiFMUP substrate to identify a natural product that inhibits SHP2 activity. Initially, we screened 658 compounds at 20 µM using a 96-well plate system (Figure 2A). […] The selected compounds were tested at 20 µM for SHP2 inhibition, and 14 additional non-receptor-type PTPs (PTP1B, TCPTP, PTPH1, STEP, SHP1, HePTP, PTP-MEG2, PTP-PEST, PTP-BAS, PTP36, PTP-HSCF, PTPD1, LYP, and HD-PTP) were used to investigate the inhibition selectivity. The results were visualized using a heat map analysis by GraphPad Prism (Figure 2B and Table S2 in Supplementary Materials). To identify new SHP2 anticancer natural products, we first performed cloning to express SHP2 protein and then purified it. PTPN11 (Gene ID: 5781) encoding human SHP2 (amino acids sequences 1 to 526) with several extra amino acids were cloned into the MBP-pET 28a (+) vector, which was successfully used to overexpress PTPs with enhanced solubility in an Escherichia coli expression system. Information on amino acids for 15 non-receptor-type PTPs including SHP2 is summarized in Table S3 in the Supplementary Materials. SHP2 was overexpressed in RosettaTM (DE3) and purified using a metal affinity resin (Figure S1 in Supplementary Materials). […] The kcat, KM, and kcat/KM values were determined to be 270 min^−1, 70 μM, and 3.9 μM^−1min^−1, respectively, using the Lineweaver–Burk plot analysis (Table S1 in Supplementary Materials).
# SHP2 = biological target: T2, SHP2 (Homo sapiens, UniProt Q06124)
# T2 construct: gene PTPN11
# T2 sequence (Q06124 1-526): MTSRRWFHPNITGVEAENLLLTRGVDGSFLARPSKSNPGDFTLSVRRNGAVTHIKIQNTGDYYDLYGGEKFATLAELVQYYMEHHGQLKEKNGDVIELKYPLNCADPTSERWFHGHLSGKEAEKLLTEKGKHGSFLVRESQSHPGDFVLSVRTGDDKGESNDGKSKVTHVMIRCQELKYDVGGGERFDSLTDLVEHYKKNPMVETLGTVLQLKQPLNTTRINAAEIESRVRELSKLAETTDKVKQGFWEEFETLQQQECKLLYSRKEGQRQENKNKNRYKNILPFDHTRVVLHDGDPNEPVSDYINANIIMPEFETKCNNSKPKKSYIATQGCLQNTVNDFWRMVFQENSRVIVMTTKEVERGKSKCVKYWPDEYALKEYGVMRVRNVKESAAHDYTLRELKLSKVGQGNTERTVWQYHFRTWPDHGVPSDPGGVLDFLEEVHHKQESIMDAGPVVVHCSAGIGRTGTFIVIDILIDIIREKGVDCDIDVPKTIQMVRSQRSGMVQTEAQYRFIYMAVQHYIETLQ
# Description: as §1
# PTPN5 (STEP) = biological target: T3, PTPN5 (STEP) (Homo sapiens, UniProt P54829)
# T3 construct: 313-565
# T3 sequence (P54829 1-565): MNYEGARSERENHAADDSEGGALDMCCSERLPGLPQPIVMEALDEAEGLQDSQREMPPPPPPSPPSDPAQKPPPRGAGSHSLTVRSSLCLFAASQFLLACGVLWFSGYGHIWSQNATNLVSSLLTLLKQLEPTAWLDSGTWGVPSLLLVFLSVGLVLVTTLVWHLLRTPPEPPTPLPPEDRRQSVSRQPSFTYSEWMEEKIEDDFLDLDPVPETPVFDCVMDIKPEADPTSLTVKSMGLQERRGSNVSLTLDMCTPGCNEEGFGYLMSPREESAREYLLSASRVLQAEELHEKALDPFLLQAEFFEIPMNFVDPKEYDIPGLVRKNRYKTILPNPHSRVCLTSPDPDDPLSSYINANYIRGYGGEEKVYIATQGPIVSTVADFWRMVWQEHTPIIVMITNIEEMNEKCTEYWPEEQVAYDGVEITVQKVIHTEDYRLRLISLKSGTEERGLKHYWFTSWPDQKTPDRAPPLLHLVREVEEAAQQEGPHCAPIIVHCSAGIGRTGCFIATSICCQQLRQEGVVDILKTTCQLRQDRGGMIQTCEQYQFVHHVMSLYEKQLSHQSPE
# Description: as §1
# PTPN23 (HD-PTP) = biological target: T4, PTPN23 (HD-PTP) (Homo sapiens, UniProt Q9H3S7)
# T4 construct: 1179-1463
# T4 sequence (Q9H3S7 whole entry): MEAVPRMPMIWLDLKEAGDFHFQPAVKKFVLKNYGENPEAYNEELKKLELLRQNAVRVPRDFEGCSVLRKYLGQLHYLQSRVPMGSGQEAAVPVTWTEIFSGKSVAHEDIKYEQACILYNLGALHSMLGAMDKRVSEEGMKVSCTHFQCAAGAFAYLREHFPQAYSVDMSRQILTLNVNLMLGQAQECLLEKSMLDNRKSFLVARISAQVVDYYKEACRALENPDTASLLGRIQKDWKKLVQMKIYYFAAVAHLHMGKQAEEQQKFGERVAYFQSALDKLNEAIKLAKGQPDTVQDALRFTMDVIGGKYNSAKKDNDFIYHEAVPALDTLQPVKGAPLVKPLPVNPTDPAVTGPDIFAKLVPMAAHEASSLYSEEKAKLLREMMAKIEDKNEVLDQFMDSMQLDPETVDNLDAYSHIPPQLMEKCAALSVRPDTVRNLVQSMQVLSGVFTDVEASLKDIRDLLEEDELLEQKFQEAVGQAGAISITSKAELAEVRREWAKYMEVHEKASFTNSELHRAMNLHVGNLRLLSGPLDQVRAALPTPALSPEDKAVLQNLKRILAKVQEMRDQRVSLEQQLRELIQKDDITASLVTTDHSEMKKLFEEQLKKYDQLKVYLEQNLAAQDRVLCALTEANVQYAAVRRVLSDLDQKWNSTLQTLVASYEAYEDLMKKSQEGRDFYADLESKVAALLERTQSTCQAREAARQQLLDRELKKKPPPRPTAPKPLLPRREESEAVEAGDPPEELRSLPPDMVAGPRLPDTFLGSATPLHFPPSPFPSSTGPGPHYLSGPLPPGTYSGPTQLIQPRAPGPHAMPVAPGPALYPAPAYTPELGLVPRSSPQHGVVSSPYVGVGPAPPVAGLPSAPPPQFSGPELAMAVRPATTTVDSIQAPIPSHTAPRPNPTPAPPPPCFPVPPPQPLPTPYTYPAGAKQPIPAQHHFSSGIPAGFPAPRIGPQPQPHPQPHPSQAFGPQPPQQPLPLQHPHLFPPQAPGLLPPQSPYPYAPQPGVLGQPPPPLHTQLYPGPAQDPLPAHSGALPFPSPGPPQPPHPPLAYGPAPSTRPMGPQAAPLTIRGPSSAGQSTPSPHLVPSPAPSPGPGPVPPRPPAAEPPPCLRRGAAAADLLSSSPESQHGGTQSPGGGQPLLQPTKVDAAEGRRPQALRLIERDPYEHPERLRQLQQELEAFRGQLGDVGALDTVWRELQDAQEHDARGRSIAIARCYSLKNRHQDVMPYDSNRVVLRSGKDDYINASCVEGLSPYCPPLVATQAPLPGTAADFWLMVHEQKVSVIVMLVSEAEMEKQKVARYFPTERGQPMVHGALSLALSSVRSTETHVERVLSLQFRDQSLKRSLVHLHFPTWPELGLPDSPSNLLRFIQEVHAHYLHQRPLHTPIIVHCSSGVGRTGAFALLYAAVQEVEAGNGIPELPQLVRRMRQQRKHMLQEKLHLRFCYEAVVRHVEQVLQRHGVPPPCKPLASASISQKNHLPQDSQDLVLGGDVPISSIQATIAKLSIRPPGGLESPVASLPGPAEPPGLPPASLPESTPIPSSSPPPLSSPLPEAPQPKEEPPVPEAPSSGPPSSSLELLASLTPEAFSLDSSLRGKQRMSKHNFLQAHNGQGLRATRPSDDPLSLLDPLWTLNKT
# Description: as §1
# PTPN1 (PTP1B) = biological target: T5, PTPN1 (PTP1B) (Homo sapiens, UniProt P18031)
# T5 construct: 1-299
# T5 sequence (P18031 1-435): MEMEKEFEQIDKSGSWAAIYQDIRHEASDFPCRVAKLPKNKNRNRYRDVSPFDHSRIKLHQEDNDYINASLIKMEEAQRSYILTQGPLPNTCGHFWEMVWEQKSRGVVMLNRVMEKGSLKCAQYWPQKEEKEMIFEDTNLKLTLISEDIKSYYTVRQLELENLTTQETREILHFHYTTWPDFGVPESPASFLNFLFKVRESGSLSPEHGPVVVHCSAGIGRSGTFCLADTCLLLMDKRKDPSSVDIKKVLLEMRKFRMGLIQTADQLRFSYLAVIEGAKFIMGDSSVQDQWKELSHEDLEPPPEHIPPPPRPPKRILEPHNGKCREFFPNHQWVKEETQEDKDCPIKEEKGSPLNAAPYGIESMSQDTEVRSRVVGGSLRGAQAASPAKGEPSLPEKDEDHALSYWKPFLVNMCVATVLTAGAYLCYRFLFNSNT
# Description: as §1
compound,measurement,setting,value
C[C@@H]1CC[C@@]2(OC1)O[C@H]1C[C@H]3[C@@H]4CC=C5C[C@@H](O[C@@H]6O[C@H](CO)[C@@H](O[C@@H]7O[C@@H](CO)[C@H](O)[C@H]7O)[C@H](O)[C@H]6O[C@@H]6O[C@@H](C)[C@H](O)[C@@H](O)[C@H]6O)CC[C@]5(C)[C@H]4CC[C@]3(C)[C@H]1[C@@H]2C [polyphyllin D],inhibition at 20 µM,SHP1,0.1%
same,inhibition at 20 µM,SHP2,85.6%
same,inhibition at 20 µM,PTPN5 (STEP),0%
same,inhibition at 20 µM,PTPN23 (HD-PTP),0%
same,inhibition at 20 µM,PTPN1 (PTP1B),0%
